Results as given in patent publication US20260224465A1, “COMPOSITIONS COMPRISING A RETINOID AND A PROCESSED OAT INGREDIENT” (Kenvue Brands LLC, priority 2023, published 2026).

Assays:
Format in all cases: cell-based
IL8 [1] = assay: IL8 gene expression (qPCR) in primary human dermal fibroblasts; details: 30 hours of treatment, normalized against POLR2A, concentration given by sample
Protocol: (§1) CRAPB2, IL8 and HAS2 were evaluated in several samples containing fermented oat, retinol, and combinations of the two in varying amounts. Retinol (BASF, 50C) was prepared by dissolving Retinol in Dimethyl Sulfoxide (DMSO) for a concentration of 20% Retinol. Retinol was then further diluted in DMEM with GlutaMAX media supplemented with 1% FBS and 1X Penn/Strep for a stock concentration of (1.1×10^−4) % and (1.1×10^−5) % Retinol. […] Fermented Oat (aurafirm P, Oat Cosmetics, Hampshire, United Kingdom; INCI Aqua, Avena sativa (Oat) Kernel Extract, Lactobacillus Ferment, Sodium Benzoate, Potassium Sorbate) was diluted in media to provide 0.2% and 1.0% Fermented Oat solutions. Primary human dermal fibroblasts were acquired from Lifeline Cell Technology, LLC (Frederick, MD 21701; lot 0967). The donor demographics were as follows: person, fibroblasts isolated from breast. Fibroblasts were cultured and expanded using Dermal Fibroblast Culture Medium (Zenbio, Inc, Durham, NC 27713). […] The cDNA was evaluated by qPCR (using the QuantStudio™ 7 Flex Real-Time PCR System from Applied Biosystems, Waltham, MA). […] The fold changes were calculated in comparison to the untreated control and two-tailed two-sample Student t-tests (Microsoft Office Excel 2007; Microsoft, Redmond, WA, USA) were performed. […]

HAS2 = HAS2 gene expression (qPCR) in primary human dermal fibroblasts; details: 30 hours of treatment, normalized against POLR2A, concentration given by sample
Protocol: as §1

CRABP2 [2] = assay: CRABP2 gene expression (qPCR) in primary human dermal fibroblasts; details: 30 hours of treatment, normalized against POLR2A, concentration given by sample
Protocol: as §1

IL8 [3] = assay: IL8 gene expression (qPCR) in human skin explants; details: human abdominal skin explants, topical 4 μL in PgETOH, 48 hours
Protocol: Propylene glycol/ethanol (PgETOH) (3:7) (w/w) was used as a vehicle. 1% Colloidal oat (Avena Sativa Kernel Flour, Oat Cosmetics, Southampton, United Kingdom) and 0.1% Retinol solutions were each prepared in PgETOH as shown in Tables 4-7. Combinations were prepared by adding the appropriate amount of test solutions to arrive at the final concentrations as shown.
Abdominal skin samples were obtained from human adults undergoing abdominoplasty surgery. Informed consent was obtained from each patient, and all experimental steps were approved by an institutional review board (IRB). Subcutaneous fat was carefully removed and skin biopsies of 0.93 cm^2 were prepared under sterile conditions and acclimated in DMEM/F12 (1:1) medium, 2% heat-inactivated fetal bovine serum, 10 μg/mL insulin, 10 ng/mL hydrocortisone, 10 ng/mL EGF, 1x ABAM under a 5% CO2 humidified atmosphere overnight. Skin explants were treated topically with 4 μL of each formulation for 48 hours. […]
Reverse transcription (RT) was performed using the Applied Biosystems High Capacity Reverse Transcription Kit (ThermoFisher Scientific, Bridgewater, NJ). […] The fold changes were calculated in comparison to the untreated or vehicle controls and two-tailed two-sample Student t-tests (Microsoft Office Excel 2007; Microsoft, Redmond, WA, USA) were performed. Synergies were calculated as described above. […]

HAS3 = HAS3 gene expression (qPCR) in human skin explants; details: human abdominal skin explants, topical 4 μL in PgETOH, 48 hours
Protocol: (§2) Propylene glycol/ethanol (PgETOH) (3:7) (w/w) was used as a vehicle. 1% Colloidal oat (Avena Sativa Kernel Flour, Oat Cosmetics, Southampton, United Kingdom) and 0.1% Retinol solutions were each prepared in PgETOH as shown in Tables 4-7. Combinations were prepared by adding the appropriate amount of test solutions to arrive at the final concentrations as shown. Abdominal skin samples were obtained from human adults undergoing abdominoplasty surgery. Informed consent was obtained from each patient, and all experimental steps were approved by an institutional review board (IRB). Subcutaneous fat was carefully removed and skin biopsies of 0.93 cm^2 were prepared under sterile conditions and acclimated in DMEM/F12 (1:1) medium, 2% heat-inactivated fetal bovine serum, 10 μg/mL insulin, 10 ng/mL hydrocortisone, 10 ng/mL EGF, 1x ABAM under a 5% CO2 humidified atmosphere overnight. Skin explants were treated topically with 4 μL of each formulation for 48 hours. […] The fold changes were calculated in comparison to the untreated or vehicle controls and two-tailed two-sample Student t-tests (Microsoft Office Excel 2007; Microsoft, Redmond, WA, USA) were performed. Synergies were calculated as described above. […]

HBEGF = HBEGF gene expression (qPCR) in human skin explants; details: human abdominal skin explants, topical 4 μL in PgETOH, 48 hours
Protocol: as §2

CRABP2 [4] = assay: CRABP2 gene expression (qPCR) in human skin explants; details: human abdominal skin explants, topical 4 μL in PgETOH, 48 hours
Protocol: as §2

Row | SMILES | IL8 Average Fold Change over untreated (IL8 [1]) [fold] | HAS2 Average Fold Change over untreated (HAS2) [fold] | CRABP2 Average Fold Change over untreated (CRABP2 [2]) [fold] | IL8 Average Fold Change over untreated (IL8 [3]) [fold] | HAS3 Average Fold Change over untreated (HAS3) [fold] | HBEGF Average Fold Change over untreated (HBEGF) [fold] | CRABP2 Average Fold Change over untreated (CRABP2 [4]) [fold]
1 | CC1=C(/C=C/C(C)=C/C=C/C(C)=C/CO)C(C)(C)CCC1 [Sample 1-2, Retinol] | 2.05 | 0.79 | 1.44 | – | – | – | –
2 | CC1=C(/C=C/C(C)=C/C=C/C(C)=C/CO)C(C)(C)CCC1 [Sample 1-3, Retinol] | 18.83 | 0.50 | 4.25 | – | – | – | –
3 | CC1=C(/C=C/C(C)=C/C=C/C(C)=C/CO)C(C)(C)CCC1 [Sample 2-3, Retinol] | – | – | – | 2.30 | 3.05 | 3.50 | 3.95
